What was measured:
[1] = refractive index (Na D-line) (dimensionless); wn = mass fraction of the nth substance listed; details: 100 kPa, Liquid, Standard Abbe refractometry
[2] = wn = mass fraction of the nth substance listed; details: for surface tension liquid-gas: Maximal bubble pressure; for mass density: 100 kPa, Liquid, Vibrating tube method

CCCCC[n+]1ccccc1.N#C[N-]C#N [1-pentylpyridinium dicyanamide] + O
Details | mass density [kg/m3] | refractive index | surface tension liquid-gas [mN/m]
[1], 303.15 K, w2 = 0.00159 | – | 1.5285 | –
[1], 303.15 K, w2 = 0.00322 | – | 1.5282 | –
[1], 303.15 K, w2 = 0.00513 | – | 1.5279 | –
[1], 303.15 K, w2 = 0.00661 | – | 1.5277 | –
[1], 303.15 K, w2 = 0.00821 | – | 1.5274 | –
[1], 308.15 K, w2 = 0.00159 | – | 1.527 | –
[1], 308.15 K, w2 = 0.00322 | – | 1.5268 | –
[1], 308.15 K, w2 = 0.00513 | – | 1.5265 | –
[1], 308.15 K, w2 = 0.00661 | – | 1.5263 | –
[1], 308.15 K, w2 = 0.00821 | – | 1.5261 | –
[1], 313.15 K, w2 = 0.00159 | – | 1.5255 | –
[1], 313.15 K, w2 = 0.00322 | – | 1.5253 | –
[1], 313.15 K, w2 = 0.00513 | – | 1.525 | –
[1], 313.15 K, w2 = 0.00661 | – | 1.5248 | –
[1], 313.15 K, w2 = 0.00821 | – | 1.5245 | –
[1], 318.15 K, w2 = 0.00159 | – | 1.5241 | –
[1], 318.15 K, w2 = 0.00322 | – | 1.5239 | –
[1], 318.15 K, w2 = 0.00513 | – | 1.5236 | –
[1], 318.15 K, w2 = 0.00661 | – | 1.5234 | –
[1], 318.15 K, w2 = 0.00821 | – | 1.5232 | –
[1], 323.15 K, w2 = 0.00159 | – | 1.5228 | –
[1], 323.15 K, w2 = 0.00322 | – | 1.5225 | –
[1], 323.15 K, w2 = 0.00513 | – | 1.5222 | –
[1], 323.15 K, w2 = 0.00661 | – | 1.522 | –
[1], 323.15 K, w2 = 0.00821 | – | 1.5217 | –
[1], 328.15 K, w2 = 0.00159 | – | 1.521 | –
[1], 328.15 K, w2 = 0.00322 | – | 1.5208 | –
[1], 328.15 K, w2 = 0.00513 | – | 1.5205 | –
[1], 328.15 K, w2 = 0.00661 | – | 1.5203 | –
[1], 328.15 K, w2 = 0.00821 | – | 1.5201 | –
[1], 333.15 K, w2 = 0.00159 | – | 1.5192 | –
[1], 333.15 K, w2 = 0.00322 | – | 1.519 | –
[1], 333.15 K, w2 = 0.00513 | – | 1.5188 | –
[1], 333.15 K, w2 = 0.00661 | – | 1.5186 | –
[1], 333.15 K, w2 = 0.00821 | – | 1.5184 | –
[1], 338.15 K, w2 = 0.00159 | – | 1.5177 | –
[1], 338.15 K, w2 = 0.00322 | – | 1.5175 | –
[1], 338.15 K, w2 = 0.00513 | – | 1.5172 | –
[1], 338.15 K, w2 = 0.00661 | – | 1.517 | –
[1], 338.15 K, w2 = 0.00821 | – | 1.5168 | –
[2], 303.15 K, w2 = 0.00124 | 1049.94 | – | –
[2], 303.15 K, w2 = 0.00159 | – | – | 53.3
[2], 303.15 K, w2 = 0.00269 | 1049.85 | – | –
[2], 303.15 K, w2 = 0.00309 | – | – | 53.7
[2], 303.15 K, w2 = 0.00423 | 1049.72 | – | –
[2], 303.15 K, w2 = 0.00463 | – | – | 54
[2], 303.15 K, w2 = 0.00567 | 1049.59 | – | –
[2], 303.15 K, w2 = 0.00611 | – | – | 54.3
[2], 303.15 K, w2 = 0.00714 | 1049.48 | – | –
[2], 303.15 K, w2 = 0.00762 | – | – | 54.6
[2], 308.15 K, w2 = 0.00124 | 1046.92 | – | –
[2], 308.15 K, w2 = 0.00159 | – | – | 53.1
[2], 308.15 K, w2 = 0.00269 | 1046.83 | – | –
[2], 308.15 K, w2 = 0.00309 | – | – | 53.3
[2], 308.15 K, w2 = 0.00423 | 1046.7 | – | –
[2], 308.15 K, w2 = 0.00463 | – | – | 53.7
[2], 308.15 K, w2 = 0.00567 | 1046.57 | – | –
[2], 308.15 K, w2 = 0.00611 | – | – | 54
[2], 308.15 K, w2 = 0.00714 | 1046.45 | – | –
[2], 308.15 K, w2 = 0.00762 | – | – | 54.3
[2], 313.15 K, w2 = 0.00124 | 1043.92 | – | –
[2], 313.15 K, w2 = 0.00159 | – | – | 52.8
[2], 313.15 K, w2 = 0.00269 | 1043.82 | – | –
[2], 313.15 K, w2 = 0.00309 | – | – | 53
[2], 313.15 K, w2 = 0.00423 | 1043.69 | – | –
[2], 313.15 K, w2 = 0.00463 | – | – | 53.4
[2], 313.15 K, w2 = 0.00567 | 1043.56 | – | –
[2], 313.15 K, w2 = 0.00611 | – | – | 53.7
[2], 313.15 K, w2 = 0.00714 | 1043.44 | – | –
[2], 313.15 K, w2 = 0.00762 | – | – | 54
[2], 318.15 K, w2 = 0.00124 | 1040.93 | – | –
[2], 318.15 K, w2 = 0.00159 | – | – | 52.4
[2], 318.15 K, w2 = 0.00269 | 1040.82 | – | –
[2], 318.15 K, w2 = 0.00309 | – | – | 52.7
[2], 318.15 K, w2 = 0.00423 | 1040.7 | – | –
[2], 318.15 K, w2 = 0.00463 | – | – | 53
[2], 318.15 K, w2 = 0.00567 | 1040.56 | – | –
[2], 318.15 K, w2 = 0.00611 | – | – | 53.3
[2], 318.15 K, w2 = 0.00714 | 1040.44 | – | –
[2], 318.15 K, w2 = 0.00762 | – | – | 53.6
[2], 323.15 K, w2 = 0.00124 | 1037.95 | – | –
[2], 323.15 K, w2 = 0.00159 | – | – | 52.1
[2], 323.15 K, w2 = 0.00269 | 1037.84 | – | –
[2], 323.15 K, w2 = 0.00309 | – | – | 52.3
[2], 323.15 K, w2 = 0.00423 | 1037.72 | – | –
[2], 323.15 K, w2 = 0.00463 | – | – | 52.7
[2], 323.15 K, w2 = 0.00567 | 1037.57 | – | –
[2], 323.15 K, w2 = 0.00611 | – | – | 53
[2], 323.15 K, w2 = 0.00714 | 1037.45 | – | –
[2], 323.15 K, w2 = 0.00762 | – | – | 53.3
[2], 328.15 K, w2 = 0.00124 | 1034.99 | – | –
[2], 328.15 K, w2 = 0.00159 | – | – | 51.8
[2], 328.15 K, w2 = 0.00269 | 1034.88 | – | –
[2], 328.15 K, w2 = 0.00309 | – | – | 52
[2], 328.15 K, w2 = 0.00423 | 1034.75 | – | –
[2], 328.15 K, w2 = 0.00463 | – | – | 52.4
[2], 328.15 K, w2 = 0.00567 | 1034.61 | – | –
[2], 328.15 K, w2 = 0.00611 | – | – | 52.7
[2], 328.15 K, w2 = 0.00714 | 1034.48 | – | –
[2], 328.15 K, w2 = 0.00762 | – | – | 53
[2], 333.15 K, w2 = 0.00124 | 1032.05 | – | –
[2], 333.15 K, w2 = 0.00159 | – | – | 51.5
[2], 333.15 K, w2 = 0.00269 | 1031.93 | – | –
[2], 333.15 K, w2 = 0.00309 | – | – | 51.8
[2], 333.15 K, w2 = 0.00423 | 1031.8 | – | –
[2], 333.15 K, w2 = 0.00463 | – | – | 52.1
[2], 333.15 K, w2 = 0.00567 | 1031.65 | – | –
[2], 333.15 K, w2 = 0.00611 | – | – | 52.4
[2], 333.15 K, w2 = 0.00714 | 1031.52 | – | –
[2], 333.15 K, w2 = 0.00762 | – | – | 52.7
[2], 338.15 K, w2 = 0.00124 | 1029.11 | – | –
[2], 338.15 K, w2 = 0.00159 | – | – | 51.3
[2], 338.15 K, w2 = 0.00269 | 1029 | – | –
[2], 338.15 K, w2 = 0.00309 | – | – | 51.6
[2], 338.15 K, w2 = 0.00423 | 1028.86 | – | –
[2], 338.15 K, w2 = 0.00463 | – | – | 51.9
[2], 338.15 K, w2 = 0.00567 | 1028.71 | – | –
[2], 338.15 K, w2 = 0.00611 | – | – | 52.2
[2], 338.15 K, w2 = 0.00714 | 1028.58 | – | –
[2], 338.15 K, w2 = 0.00762 | – | – | 52.4

Reference: the NIST ThermoML archive (doi:10.1016/j.jct.2015.11.023)
